Results from patent US12629374B2, “Antimalarial agents” (Merck Sharp & Dohme LLC, priority 2020, dated 2026).
Where two headings read alike, the source gives them in different places.

Tested on: ring stage parasites
Assay: Parasite growth potency assay, 72 hours, LDH readout
Format: cell-based
Details: parasite growth measured by LDH assay after 72 hours at 37° C., 0.7% rings, 2% haematocrit, read-out: EC50
Summary of the method: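 Parasite growth was quantified by LDH assay after a −80 °C freeze-thaw. Before that, compound was incubated for 72 h at 37 °C under humidified gas with ring-stage cultures adjusted to 0.7% parasitemia and 2% haematocrit in serum- and albumax-supplemented RPMI-Hepes.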

SMILES | EC50 (72 h) [nM] | also measured
COCC[C@H](c1cc(F)cc(C(=O)N[C@@H]2c3ccccc3C[C@]2(C)O)c1)N1C(=N)NC(C)(C)CC1=O [Example 175B, 3-fluoro-N-[(1R,2S)-2-hydroxy-2-methyl-indan-1-yl]-5-[1-(2-imino-4,4-dimethyl-6-oxo-hexahydropyrimidin-1-yl)-3-methoxy-propyl]benzamide] | – | EC50: 9.2 nM
CCC1(CC)CC(=O)N([C@H](CCOC)c2cc(F)cc(C(=O)N[C@@H]3c4ccccc4OC3(C)COC)c2)C(=N)N1 (stereo partly drawn) [Example 176B, [4,4-diethyl-1-[(1R)-1-[3-fluoro-5-[[2-(methoxymethyl)-2-methyl-3H-benzofuran-3-yl]carbamoyl]phenyl]-3-methoxy-propyl]-6-oxo-hexahydropyrimidin-2-ylidene]ammonium; 2,2,2-trifluoroacetate] | 0.9 | –
COCC[C@H](c1cccc(C(=O)N[C@H]2CC(C)(C)Oc3ccccc32)c1)N1C(=N)NC(C)(C)CC1=O [Example 177, [1-[(1R)-1-[3-[[(4S)-2,2-dimethylchroman-4-yl]carbamoyl]phenyl]-3-methoxy-propyl]-4,4-dimethyl-6-oxo-hexahydropyrimidin-2-ylidene]ammonium; 2,2,2-trifluoroacetate] | 2.1 | –
COCC[C@H](c1cccc(C(=O)N[C@@H]2c3ccccc3OC(C)(C)[C@H]2O)c1)N1C(=N)NC(C)(C)CC1=O [Example 178, [1-[(1R)-1-[3-[[(3S,4R)-3-hydroxy-2,2-dimethyl-chroman-4-yl]carbamoyl]phenyl]-3-methoxy-propyl]-4,4-dimethyl-6-oxo-hexahydropyrimidin-2-ylidene]ammonium; 2,2,2-trifluoroacetate] | 2.4 | –
COCC[C@H](c1cccc(C(=O)N[C@@H]2c3ccccc3C[C@H]2O)c1)N1C(=N)NC(C)(C)CC1=O [Example 179, [1-[(1R)-1-[3-[[(1R,2R)-2-hydroxyindan-1-yl]carbamoyl]phenyl]-3-methoxy-propyl]-4,4-dimethyl-6-oxo-hexahydropyrimidin-2-ylidene]ammonium; 2,2,2-trifluoroacetate] | 8.3 | –
CCC1(CC)CC(=O)N([C@H](CCOC)c2cccc(C(=O)N[C@@H]3c4ccccc4OC3(C)C)c2)C(=N)N1 [Example 181A, [1-[(1R)-1-[3-[(2,2-dimethyl-3H-benzofuran-3-yl)carbamoyl]phenyl]-3-methoxy-propyl]-4,4-diethyl-6-oxo-hexahydropyrimidin-2-ylidene]ammonium; 2,2,2-trifluoroacetate] | 3 | –
CCC1(CC)CC(=O)N([C@H](CCOC)c2cccc(C(=O)N[C@H]3c4ccccc4OC3(C)C)c2)C(=N)N1 [Example 181B, [1-[(1R)-1-[3-[(2,2-dimethyl-3H-benzofuran-3-yl)carbamoyl]phenyl]-3-methoxy-propyl]-4,4-diethyl-6-oxo-hexahydropyrimidin-2-ylidene]ammonium; 2,2,2-trifluoroacetate] | 71.2 | –
CC1(C)CC(=O)N(Cc2cccc(C(=O)N[C@@H]3c4cc(F)ccc4OC(C)(C)[C@H]3O)c2)C(=N)N1 [Example 182, [1-[[3-[[(3S,4R)-6-fluoro-3-hydroxy-2,2-dimethyl-chroman-4-yl]carbamoyl]phenyl]methyl]-4,4-dimethyl-6-oxo-hexahydropyrimidin-2-ylidene]ammonium; 2,2,2-trifluoroacetate] | 5.4 | –
CC1(C)CC(=O)N(Cc2cc(F)cc(C(=O)N[C@@H]3c4ccccc4OC(C)(C)[C@H]3O)c2)C(=N)N1 [Example 183, [1-[[3-fluoro-5-[[(3S,4R)-3-hydroxy-2,2-dimethyl-chroman-4-yl]carbamoyl]phenyl]methyl]-4,4-dimethyl-6-oxo-hexahydropyrimidin-2-ylidene]ammonium; 2,2,2-trifluoroacetate] | 9.1 | –
COCC[C@H](c1cccc(C(=O)N[C@@H]2c3ccccc3CC2(O)C(F)(F)F)c1)N1C(=N)NC(C)(C)CC1=O (stereo partly drawn) [Example 188, [1-[(1R)-1-[3-[[2-hydroxy-2-(trifluoromethyl)indan-1-yl]carbamoyl]phenyl]-3-methoxy-propyl]-4,4-dimethyl-6-oxo-hexahydropyrimidin-2-ylidene]ammonium; 2,2,2-trifluoroacetate] | 7.3 | –
CCC1(CC)CC(=O)N([C@H](CCOC)c2cccc(C(=O)NC3c4ccccc4C(F)(F)C3O)c2)C(=N)N1 (stereo partly drawn) [Example 189A, [1-[(1R)-1-[3-[(3,3-difluoro-2-hydroxy-indan-1-yl)carbamoyl]phenyl]-3-methoxy-propyl]-4,4-diethyl-6-oxo-hexahydropyrimidin-2-ylidene]ammonium; 2,2,2-trifluoroacetate] | – | EC50 (trifluoroacetate): 0.8 nM
CCC1(CC)CC(=O)N([C@H](CCOC)c2cccc(C(=O)NC3c4ccccc4C(F)(F)C3O)c2)C(=N)N1 (stereo partly drawn) [Example 189B, [1-[(1R)-1-[3-[(3,3-difluoro-2-hydroxy-indan-1-yl)carbamoyl]phenyl]-3-methoxy-propyl]-4,4-diethyl-6-oxo-hexahydropyrimidin-2-ylidene]ammonium; chloride] | – | EC50: 292 nM
CCC1(CC)CC(=O)N([C@H](CCOC)c2cccc(C(=O)N[C@@H]3c4ccccc4C4(CC4)[C@H]3O)c2)C(=N)N1 [Example 191A, [4,4-diethyl-1-[(1R)-1-[3-[(2′-hydroxyspiro[cyclopropane-1,3′-indane]-1′-yl)carbamoyl]phenyl]-3-methoxy-propyl]-6-oxo-hexahydropyrimidin-2-ylidene]ammonium; 2,2,2-trifluoroacetate] | 0.7 | –
CCC1(CC)CC(=O)N([C@H](CCOC)c2cccc(C(=O)N[C@H]3c4ccccc4C4(CC4)[C@@H]3O)c2)C(=N)N1 [Example 191B, [4,4-diethyl-1-[(1R)-1-[3-[(2′-hydroxyspiro[cyclopropane-1,3′-indane]-1′-yl)carbamoyl]phenyl]-3-methoxy-propyl]-6-oxo-hexahydropyrimidin-2-ylidene]ammonium; 2,2,2-trifluoroacetate] | 90.2 | –
CCC1(CC)CC(=O)N([C@H](C)c2cccc(C(=O)N[C@@H]3c4ccccc4C[C@@]3(C)O)c2)C(=N)N1 [Example 192A, 3-[(1R)-1-(4,4-diethyl-2-imino-6-oxo-hexahydropyrimidin-1-yl)ethyl]-N-[(1R,2R)-2-hydroxy-2-methyl-indan-1-yl]benzamide] | 2.1 | –
CCC1(CC)CC(=O)N([C@H](C)c2cccc(C(=O)N[C@@H]3c4ccccc4C[C@]3(C)O)c2)C(=N)N1 [Example 192B, 3-[(1R)-1-(4,4-diethyl-2-imino-6-oxo-hexahydropyrimidin-1-yl)ethyl]-N-[(1R,2S)-2-hydroxy-2-methyl-indan-1-yl]benzamide] | – | EC50: 2.7 nM
CCC1(CC)CC(=O)N([C@H](C)c2cccc(C(=O)N[C@@H]3c4ccccc4OC(C)(C)[C@H]3O)c2)C(=N)N1 [Example 193, [4,4-diethyl-1-[(1R)-1-[3-[[(3S,4R)-3-hydroxy-2,2-dimethyl-chroman-4-yl]carbamoyl]phenyl]ethyl]-6-oxo-hexahydropyrimidin-2-ylidene]ammonium; 2,2,2-trifluoroacetate] | 0.6 | –
CC1(C)CC(=O)N(Cc2cccc(C(=O)N[C@@H]3c4ccccc4OC(C)(C)[C@H]3O)c2)C(=N)N1 [Example 194, [1-[[3-[[(3S,4R)-3-hydroxy-2,2-dimethyl-chroman-4-yl]carbamoyl]phenyl]methyl]-4,4-dimethyl-6-oxo-hexahydropyrimidin-2-ylidene]ammonium; 2,2,2-trifluoroacetate] | 11.6 | –
CCC1(C)CC(=O)N([C@H](CCOC)c2cccc(C(=O)N[C@@H]3c4ccccc4C[C@H]3O)c2)C(=N)N1 (stereo partly drawn) [Example 195A, [4-ethyl-1-[(1R)-1-[3-[[(1R,2R)-2-hydroxyindan-1-yl]carbamoyl]phenyl]-3-methoxy-propyl]-4-methyl-6-oxo-hexahydropyrimidin-2-ylidene]ammonium; 2,2,2-trifluoroacetate] | 3.3 | –
CCC1(C)CC(=O)N([C@H](CCOC)c2cccc(C(=O)N[C@@H]3c4ccccc4C[C@H]3O)c2)C(=N)N1 (stereo partly drawn) [Example 195B, [4-ethyl-1-[(1R)-1-[3-[[(1R,2R)-2-hydroxyindan-1-yl]carbamoyl]phenyl]-3-methoxy-propyl]-4-methyl-6-oxo-hexahydropyrimidin-2-ylidene]ammonium; 2,2,2-trifluoroacetate] | – | EC50 (trifluoroacetate): 2.7 nM
CCC1(C)CC(=O)N([C@H](CCOC)c2cccc(C(=O)N[C@@H]3c4ccccc4CC3(C)O)c2)C(=N)N1 (stereo partly drawn) [Example 196A, 3-[(1R)-1-(4-ethyl-2-imino-4-methyl-6-oxo-hexahydropyrimidin-1-yl)-3-methoxy-propyl]-N-[(1R,2S)-2-hydroxy-2-methyl-indan-1-yl]benzamide] | – | EC50: 6.5 nM
CCC1(C)CC(=O)N([C@H](CCOC)c2cccc(C(=O)N[C@@H]3c4ccccc4CC3(C)O)c2)C(=N)N1 (stereo partly drawn) [Example 196B, 3-[(1R)-1-(4-ethyl-2-imino-4-methyl-6-oxo-hexahydropyrimidin-1-yl)-3-methoxy-propyl]-N-[(1R,2S)-2-hydroxy-2-methyl-indan-1-yl]benzamide] | – | EC50: 3.1 nM
CCC1(C)CC(=O)N([C@H](CCOC)c2cccc(C(=O)N[C@@H]3c4ccccc4C[C@@]3(C)O)c2)C(=N)N1 (stereo partly drawn) [Example 196C, 3-[(1R)-1-(4-ethyl-2-imino-4-methyl-6-oxo-hexahydropyrimidin-1-yl)-3-methoxy-propyl]-N-[(1R,2R)-2-hydroxy-2-methyl-indan-1-yl]benzamide] | – | EC50: 7.4 nM
CCC1(C)CC(=O)N([C@H](CCOC)c2cccc(C(=O)N[C@@H]3c4ccccc4CC3(C)O)c2)C(=N)N1 (stereo partly drawn) [Example 196D, 3-[(1R)-1-(4-ethyl-2-imino-4-methyl-6-oxo-hexahydropyrimidin-l-yl)-3-methoxy-propyl]-N-[(1R,2R)-2-hydroxy-2-methyl-indan-1-yl]benzamide] | – | EC50: 6.8 nM
CC1(C)CC(=O)N(Cc2cccc(C(=O)N[C@H]3CC(C)(C)Oc4ccccc43)c2)C(=N)N1 [Example 198, [1-[[3-[[(4S)-2,2-dimethylchroman-4-yl]carbamoyl]phenyl]methyl]-4,4-dimethyl-6-oxo-hexahydropyrimidin-2-ylidene]ammonium; 2,2,2-trifluoroacetate] | 17 | –
